Results on one compound are retold here after patent publication US5126356A, “Piperidine compounds” (Adir et Compagnie, priority 1989, dated 1992).

For orientation: EC50 means the midpoint of the concentration-response curve.

Assay [1] addresses T1, slow calcium channels (Rattus norvegicus, UniProt P22002).
T1 construct: cell lines from the aorta of newly born rats; host or cells: A7 r5
Kind of assay: Electrophysiology, whole cell patch clamp on A7 r5, slow calcium entry flow. The class given is cell-based. On the procedure:
b) A7 r5 : cell lines from the aorta of newly born rats (ATCC No. CRL 1444), cultivated under the conditions indicated by the American Type Culture Collection (ATCC).
The studies were carried out on the A7 r5 cell line using the whole cell patch-clamp technique described by HAMILL O., MARTY A., WEHER E., SAKMANN B., SIGWORTH F. F., Improved patch clamp techniques for high resolution current recording from cells and cell from membrane patches. Pflugers Arch., 391, 85-100 (1981).

The target of assay [2] is Alpha adrenergic α2. Nature of the assay: Binding to neurotransmitter receptors: alpha2 adrenergic ([3H] Rauwolscine). Particulars: α2, [3H] Rauwolscine; read-out: K0.5.
In assay [3] the target is Dopamine D2 (Homo sapiens, UniProt P14416). Nature of the assay: Binding to neurotransmitter receptors: D2 ([3H] 205 501). Particulars: read-out: K0.5.
Sequence of Dopamine D2 (P14416 whole entry): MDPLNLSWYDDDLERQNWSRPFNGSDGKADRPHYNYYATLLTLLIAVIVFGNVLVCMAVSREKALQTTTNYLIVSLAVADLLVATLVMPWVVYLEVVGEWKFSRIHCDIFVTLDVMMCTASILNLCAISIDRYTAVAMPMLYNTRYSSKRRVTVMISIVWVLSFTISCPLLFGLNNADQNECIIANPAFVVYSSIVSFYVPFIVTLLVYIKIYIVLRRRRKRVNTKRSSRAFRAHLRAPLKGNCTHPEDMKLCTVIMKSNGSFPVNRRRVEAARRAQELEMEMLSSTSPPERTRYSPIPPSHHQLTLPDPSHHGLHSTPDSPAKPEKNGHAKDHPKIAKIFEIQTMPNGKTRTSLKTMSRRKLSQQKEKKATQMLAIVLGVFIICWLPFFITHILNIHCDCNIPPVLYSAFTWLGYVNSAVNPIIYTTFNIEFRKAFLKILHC

T1 sequence (P22002 whole entry): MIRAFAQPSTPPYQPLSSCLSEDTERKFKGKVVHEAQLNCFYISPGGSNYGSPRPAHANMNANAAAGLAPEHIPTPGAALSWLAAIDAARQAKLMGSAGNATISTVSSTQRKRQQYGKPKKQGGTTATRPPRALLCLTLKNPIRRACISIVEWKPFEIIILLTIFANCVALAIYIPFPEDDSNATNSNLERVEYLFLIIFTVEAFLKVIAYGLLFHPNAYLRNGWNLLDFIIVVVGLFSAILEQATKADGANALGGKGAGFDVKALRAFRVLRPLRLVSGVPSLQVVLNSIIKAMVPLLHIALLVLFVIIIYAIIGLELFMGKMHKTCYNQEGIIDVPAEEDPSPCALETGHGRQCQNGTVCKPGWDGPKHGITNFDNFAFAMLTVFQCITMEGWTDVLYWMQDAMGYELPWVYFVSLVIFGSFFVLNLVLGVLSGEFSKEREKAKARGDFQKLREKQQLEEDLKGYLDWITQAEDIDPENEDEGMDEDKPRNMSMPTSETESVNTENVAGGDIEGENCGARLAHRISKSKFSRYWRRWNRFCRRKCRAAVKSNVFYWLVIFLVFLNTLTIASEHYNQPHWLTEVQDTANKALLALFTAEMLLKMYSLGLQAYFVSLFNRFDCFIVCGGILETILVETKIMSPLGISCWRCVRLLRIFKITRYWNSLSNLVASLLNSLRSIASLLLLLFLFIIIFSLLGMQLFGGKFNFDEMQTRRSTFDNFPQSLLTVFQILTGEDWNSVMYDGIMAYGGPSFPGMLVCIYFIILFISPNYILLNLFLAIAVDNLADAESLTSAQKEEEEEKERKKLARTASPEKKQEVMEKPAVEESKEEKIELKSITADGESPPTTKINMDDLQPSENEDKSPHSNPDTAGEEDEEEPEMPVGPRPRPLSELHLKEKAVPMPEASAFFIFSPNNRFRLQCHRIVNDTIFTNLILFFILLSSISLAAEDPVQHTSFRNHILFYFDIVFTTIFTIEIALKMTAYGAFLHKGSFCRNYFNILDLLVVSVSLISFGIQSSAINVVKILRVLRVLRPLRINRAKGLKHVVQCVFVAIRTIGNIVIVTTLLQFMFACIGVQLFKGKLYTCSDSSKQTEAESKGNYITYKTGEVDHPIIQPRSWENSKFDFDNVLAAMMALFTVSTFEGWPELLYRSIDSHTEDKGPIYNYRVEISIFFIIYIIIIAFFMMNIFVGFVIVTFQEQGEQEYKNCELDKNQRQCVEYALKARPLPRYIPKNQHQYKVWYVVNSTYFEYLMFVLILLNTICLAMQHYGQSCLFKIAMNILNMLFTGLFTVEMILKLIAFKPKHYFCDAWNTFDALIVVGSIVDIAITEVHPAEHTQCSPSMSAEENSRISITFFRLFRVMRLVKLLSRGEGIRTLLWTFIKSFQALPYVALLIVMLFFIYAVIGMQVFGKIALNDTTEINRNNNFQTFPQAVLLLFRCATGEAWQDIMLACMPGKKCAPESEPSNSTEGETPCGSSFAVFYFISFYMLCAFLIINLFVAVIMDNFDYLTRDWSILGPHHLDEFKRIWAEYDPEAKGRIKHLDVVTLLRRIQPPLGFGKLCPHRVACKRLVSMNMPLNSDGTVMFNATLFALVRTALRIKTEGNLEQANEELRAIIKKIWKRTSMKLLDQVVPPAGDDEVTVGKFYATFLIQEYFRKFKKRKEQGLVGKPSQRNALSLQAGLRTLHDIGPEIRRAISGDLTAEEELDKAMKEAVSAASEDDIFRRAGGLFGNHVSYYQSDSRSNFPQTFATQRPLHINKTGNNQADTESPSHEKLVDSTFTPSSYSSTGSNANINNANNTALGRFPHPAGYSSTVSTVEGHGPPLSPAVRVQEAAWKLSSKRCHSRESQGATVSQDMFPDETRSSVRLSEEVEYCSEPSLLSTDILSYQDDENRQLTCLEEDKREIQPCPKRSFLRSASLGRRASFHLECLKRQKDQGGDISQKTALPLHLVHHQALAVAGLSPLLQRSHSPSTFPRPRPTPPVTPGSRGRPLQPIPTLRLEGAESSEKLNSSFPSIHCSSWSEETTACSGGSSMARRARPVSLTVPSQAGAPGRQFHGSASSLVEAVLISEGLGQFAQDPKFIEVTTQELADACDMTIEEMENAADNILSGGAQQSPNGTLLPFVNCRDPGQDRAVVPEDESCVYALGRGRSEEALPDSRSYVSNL
T1 sequence (P54290 25-945 partner limits assumed): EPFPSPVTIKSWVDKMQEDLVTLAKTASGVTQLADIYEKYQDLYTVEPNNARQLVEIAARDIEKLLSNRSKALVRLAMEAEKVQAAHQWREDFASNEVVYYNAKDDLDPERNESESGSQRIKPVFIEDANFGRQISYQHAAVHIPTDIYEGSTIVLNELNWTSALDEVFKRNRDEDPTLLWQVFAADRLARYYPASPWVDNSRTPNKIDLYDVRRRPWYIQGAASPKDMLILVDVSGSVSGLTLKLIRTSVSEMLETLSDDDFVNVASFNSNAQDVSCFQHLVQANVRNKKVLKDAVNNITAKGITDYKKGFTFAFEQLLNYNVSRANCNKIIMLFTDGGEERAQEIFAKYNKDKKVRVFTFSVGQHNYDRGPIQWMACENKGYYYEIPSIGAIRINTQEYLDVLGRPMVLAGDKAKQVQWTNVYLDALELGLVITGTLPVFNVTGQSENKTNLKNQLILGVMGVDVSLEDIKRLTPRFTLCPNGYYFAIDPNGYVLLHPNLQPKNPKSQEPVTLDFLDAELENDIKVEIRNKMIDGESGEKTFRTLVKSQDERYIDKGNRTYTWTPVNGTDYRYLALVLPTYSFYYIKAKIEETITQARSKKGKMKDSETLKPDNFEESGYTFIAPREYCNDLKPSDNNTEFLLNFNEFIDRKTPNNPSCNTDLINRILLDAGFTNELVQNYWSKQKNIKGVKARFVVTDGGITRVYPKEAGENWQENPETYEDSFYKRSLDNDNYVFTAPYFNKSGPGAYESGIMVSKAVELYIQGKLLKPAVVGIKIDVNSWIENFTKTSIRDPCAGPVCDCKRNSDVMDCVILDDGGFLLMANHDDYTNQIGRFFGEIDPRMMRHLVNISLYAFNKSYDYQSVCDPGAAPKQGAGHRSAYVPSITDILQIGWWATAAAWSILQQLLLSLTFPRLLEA
T1 sequence (P54290 946-1091 partner limits assumed): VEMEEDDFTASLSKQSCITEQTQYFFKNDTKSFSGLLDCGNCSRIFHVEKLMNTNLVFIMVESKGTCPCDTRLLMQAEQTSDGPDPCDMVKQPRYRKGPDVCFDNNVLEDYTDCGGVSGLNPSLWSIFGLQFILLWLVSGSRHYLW

Take `COc1ccc(CSC2CCN(CC=Cc3ccccc3)CC2)c(OC)c1OC` [Example 1, 4-(2,3,4-trimethoxybenzylthio)-1-cinnamylpiperidine]: in assay [1], the “inhibition of slow calcium channels / Ca2+ entry flow (in words)” value was “inhibition of the Ca^2+ entry flow in a dose-dependent manner”. Further, the EC50 in assay [1] (whole cell patch clamp, A7 r5, read-out: semi-effect (EC50), inhibition of the slow calcium entry flow) is 10000 nM. Further, the IC50 in assay [2] stood at 900 nM; in assay [3], 300 nM.
